The results in this text go back to ChEMBL document CHEMBL1132916, “Total synthesis of pyrrolizidines 223H', 239K', 265H', and 267H' found in Madagascan frogs (Mantella) and their affinities for nicotinic acetylcholine receptor” (Bioorg Med Chem Lett, 2000).

Each structure is given as a SMILES string.

The assay deals with Acetylcholine receptor (Torpedo californica, UniProt P02710+P02712+P02714+P02718). Kind of assay: Compound was evaluated for inhibition of [3H]TCP binding to Nicotinic acetylcholine receptor of Torpedo californica. The class given is protein-complex assay, Tetronarce californica.
Sequence of Acetylcholine receptor (P02710 whole entry): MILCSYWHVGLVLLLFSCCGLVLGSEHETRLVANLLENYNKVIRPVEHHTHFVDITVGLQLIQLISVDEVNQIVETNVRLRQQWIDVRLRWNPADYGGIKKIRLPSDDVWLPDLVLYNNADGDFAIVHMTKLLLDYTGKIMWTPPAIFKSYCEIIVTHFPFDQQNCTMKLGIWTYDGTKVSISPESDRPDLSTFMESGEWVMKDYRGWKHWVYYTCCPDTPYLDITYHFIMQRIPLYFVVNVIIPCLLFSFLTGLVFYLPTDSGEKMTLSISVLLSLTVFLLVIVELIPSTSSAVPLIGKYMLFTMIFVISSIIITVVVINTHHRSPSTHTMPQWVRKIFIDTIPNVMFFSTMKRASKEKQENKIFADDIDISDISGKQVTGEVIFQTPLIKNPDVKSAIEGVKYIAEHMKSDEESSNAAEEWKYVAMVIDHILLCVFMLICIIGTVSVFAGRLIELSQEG
Sequence of Acetylcholine receptor (P02712 whole entry): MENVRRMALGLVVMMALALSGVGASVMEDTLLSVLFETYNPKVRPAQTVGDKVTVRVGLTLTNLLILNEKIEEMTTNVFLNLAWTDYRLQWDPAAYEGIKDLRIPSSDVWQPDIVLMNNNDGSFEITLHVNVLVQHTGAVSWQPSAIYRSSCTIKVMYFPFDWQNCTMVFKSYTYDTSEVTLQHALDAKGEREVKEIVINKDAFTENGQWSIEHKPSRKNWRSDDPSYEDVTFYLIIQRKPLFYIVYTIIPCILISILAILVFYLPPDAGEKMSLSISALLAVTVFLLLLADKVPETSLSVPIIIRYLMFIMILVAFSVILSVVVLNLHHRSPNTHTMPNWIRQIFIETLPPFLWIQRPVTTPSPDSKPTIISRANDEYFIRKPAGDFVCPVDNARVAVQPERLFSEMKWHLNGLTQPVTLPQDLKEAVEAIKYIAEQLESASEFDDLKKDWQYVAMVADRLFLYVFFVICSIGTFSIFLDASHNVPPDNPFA
Sequence of Acetylcholine receptor (P02718 whole entry): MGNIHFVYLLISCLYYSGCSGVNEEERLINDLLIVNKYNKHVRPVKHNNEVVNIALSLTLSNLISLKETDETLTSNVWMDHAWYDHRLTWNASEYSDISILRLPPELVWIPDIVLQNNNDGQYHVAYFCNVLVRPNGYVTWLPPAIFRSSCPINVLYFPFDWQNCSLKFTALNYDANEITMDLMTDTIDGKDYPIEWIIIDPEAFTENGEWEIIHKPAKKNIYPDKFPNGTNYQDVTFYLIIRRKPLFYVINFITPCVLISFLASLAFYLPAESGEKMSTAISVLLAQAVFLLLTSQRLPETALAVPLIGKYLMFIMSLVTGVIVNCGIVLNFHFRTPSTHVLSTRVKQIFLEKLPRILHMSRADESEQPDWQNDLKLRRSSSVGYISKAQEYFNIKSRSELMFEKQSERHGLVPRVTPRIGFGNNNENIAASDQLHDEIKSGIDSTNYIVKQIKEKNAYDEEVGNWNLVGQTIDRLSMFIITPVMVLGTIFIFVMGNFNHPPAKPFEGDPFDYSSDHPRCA
Sequence of Acetylcholine receptor (P02714 whole entry): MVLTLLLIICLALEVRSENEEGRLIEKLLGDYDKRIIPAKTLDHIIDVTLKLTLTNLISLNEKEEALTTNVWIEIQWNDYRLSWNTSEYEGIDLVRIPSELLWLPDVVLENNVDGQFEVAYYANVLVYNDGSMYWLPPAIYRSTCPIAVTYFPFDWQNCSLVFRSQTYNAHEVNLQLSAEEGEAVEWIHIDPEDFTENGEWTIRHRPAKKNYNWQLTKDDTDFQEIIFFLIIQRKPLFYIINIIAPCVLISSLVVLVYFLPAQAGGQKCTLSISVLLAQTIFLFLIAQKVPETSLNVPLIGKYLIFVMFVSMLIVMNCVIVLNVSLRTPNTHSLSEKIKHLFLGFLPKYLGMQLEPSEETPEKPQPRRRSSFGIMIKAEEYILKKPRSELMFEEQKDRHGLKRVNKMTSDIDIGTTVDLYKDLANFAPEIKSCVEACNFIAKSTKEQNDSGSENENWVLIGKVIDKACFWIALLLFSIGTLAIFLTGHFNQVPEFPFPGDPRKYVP

For the molecule `CCCCCCC[C@@H]1CC[C@H]2CC[C@H](C)N12`, affinity was put at a Ki of 0.05 mM.
As for `C[C@H](O)CCCCC[C@@H]1CC[C@H]2CC[C@H](C)N12`, the affinity, expressed as Ki, was 3.3 mM.
Next, `CCCC[C@@H]1CCCC2CC[C@@H](CCCC)N21` (stereo partly drawn): 0.42 mM; `C[C@@H](O)CCCCC[C@@H]1CC[C@H]2CC[C@H](C)N12`: 8.3 mM.
To `CCC[C@H]1CC[C@@H]2CC[C@@H](CCCCC[C@@H](C)O)N21` belongs 3.1 mM; to `CCCC[C@H]1CCCC2CC[C@@H](CCCC)N21` (stereo partly drawn), 0.37 mM.
Next, `CCC[C@H]1CC[C@@H]2CC[C@@H](CCCCC[C@H](C)O)N21`: 3.1 mM; `CCC[C@H]1CC[C@@H]2CC[C@@H](CCCCCC(C)=O)N21`: 0.83 mM.
